Test results published in ChEMBL document CHEMBL5442219.

What was measured:
Settings in all cases: Compound concentration 10 µM
[1] = biological target: Delta-type opioid receptor (Homo sapiens) (UniProt P41143)
Description: PDSP Primary Binding target: OPRD1 - Compounds are tested at 10 uM concentration, plate are incubated at room temperature in the dark for 90 minutes. Reaction are stopped by vacuum filtration onto 0.3% polyethyleneimine soaked filter mats using Filtermate harvester. Scintilation cocktail is then melted onto microwave-dried filters on a hot plate and the radio activity is counted in Microbia counter.

[2] = biological target: 5-hydroxytryptamine receptor 5A (Homo sapiens) (UniProt P47898)
Description: PDSP Primary Binding target: HTR5A - Compounds are tested at 10 uM concentration, plate are incubated at room temperature in the dark for 90 minutes. Reaction are stopped by vacuum filtration onto 0.3% polyethyleneimine soaked filter mats using Filtermate harvester. Scintilation cocktail is then melted onto microwave-dried filters on a hot plate and the radio activity is counted in Microbia counter.

[3] = biological target: T1, 5-hydroxytryptamine receptor 1A (Homo sapiens) (UniProt P08908)
T1 sequence (whole entry): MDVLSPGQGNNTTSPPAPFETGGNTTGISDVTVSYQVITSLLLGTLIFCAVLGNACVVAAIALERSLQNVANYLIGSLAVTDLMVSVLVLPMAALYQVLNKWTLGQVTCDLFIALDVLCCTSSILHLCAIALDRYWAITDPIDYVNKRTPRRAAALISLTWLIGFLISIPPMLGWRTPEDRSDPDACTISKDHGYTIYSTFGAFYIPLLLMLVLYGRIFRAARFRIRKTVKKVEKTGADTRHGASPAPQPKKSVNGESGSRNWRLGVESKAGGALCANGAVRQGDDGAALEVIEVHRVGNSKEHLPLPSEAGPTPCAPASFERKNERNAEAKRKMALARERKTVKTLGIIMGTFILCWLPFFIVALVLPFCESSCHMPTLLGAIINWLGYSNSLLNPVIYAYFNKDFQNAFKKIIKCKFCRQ
Description: PDSP Primary Binding target: HTR1A - Compounds are tested at 10 uM concentration, plate are incubated at room temperature in the dark for 90 minutes. Reaction are stopped by vacuum filtration onto 0.3% polyethyleneimine soaked filter mats using Filtermate harvester. Scintilation cocktail is then melted onto microwave-dried filters on a hot plate and the radio activity is counted in Microbia counter.

[4] = biological target: Kappa-type opioid receptor (Homo sapiens) (UniProt P41145)
Description: PDSP Primary Binding target: OPRK1 - Compounds are tested at 10 uM concentration, plate are incubated at room temperature in the dark for 90 minutes. Reaction are stopped by vacuum filtration onto 0.3% polyethyleneimine soaked filter mats using Filtermate harvester. Scintilation cocktail is then melted onto microwave-dried filters on a hot plate and the radio activity is counted in Microbia counter.

[5] = biological target: T2, Alpha-1B adrenergic receptor (Homo sapiens) (UniProt P35368)
T2 sequence (whole entry): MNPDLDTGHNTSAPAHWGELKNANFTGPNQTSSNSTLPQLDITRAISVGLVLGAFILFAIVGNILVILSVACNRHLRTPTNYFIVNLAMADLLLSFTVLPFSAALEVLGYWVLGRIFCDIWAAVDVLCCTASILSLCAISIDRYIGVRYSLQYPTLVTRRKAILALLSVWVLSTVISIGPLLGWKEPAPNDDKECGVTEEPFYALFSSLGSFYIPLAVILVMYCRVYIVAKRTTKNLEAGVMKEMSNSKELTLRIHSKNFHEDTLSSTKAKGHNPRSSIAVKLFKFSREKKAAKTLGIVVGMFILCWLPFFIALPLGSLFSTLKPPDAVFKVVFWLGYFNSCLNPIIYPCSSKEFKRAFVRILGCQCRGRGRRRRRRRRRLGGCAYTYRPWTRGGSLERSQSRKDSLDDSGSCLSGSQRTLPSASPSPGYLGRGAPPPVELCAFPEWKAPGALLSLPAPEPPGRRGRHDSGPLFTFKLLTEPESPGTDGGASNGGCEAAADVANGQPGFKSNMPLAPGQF
Description: PDSP Primary Binding target: ADRA1B - Compounds are tested at 10 uM concentration, plate are incubated at room temperature in the dark for 90 minutes. Reaction are stopped by vacuum filtration onto 0.3% polyethyleneimine soaked filter mats using Filtermate harvester. Scintilation cocktail is then melted onto microwave-dried filters on a hot plate and the radio activity is counted in Microbia counter.

[6] = biological target: Histamine H1 receptor (Homo sapiens) (UniProt P35367)
Description: PDSP Primary Binding target: HRH1 - Compounds are tested at 10 uM concentration, plate are incubated at room temperature in the dark for 90 minutes. Reaction are stopped by vacuum filtration onto 0.3% polyethyleneimine soaked filter mats using Filtermate harvester. Scintilation cocktail is then melted onto microwave-dried filters on a hot plate and the radio activity is counted in Microbia counter.

[7] = biological target: Translocator protein (Homo sapiens) (UniProt P30536)
Description: PDSP Primary Binding target: TSPO - Compounds are tested at 10 uM concentration, plate are incubated at room temperature in the dark for 90 minutes. Reaction are stopped by vacuum filtration onto 0.3% polyethyleneimine soaked filter mats using Filtermate harvester. Scintilation cocktail is then melted onto microwave-dried filters on a hot plate and the radio activity is counted in Microbia counter.

[8] = biological target: T3, Alpha-1A adrenergic receptor (Homo sapiens) (UniProt P35348)
T3 sequence (whole entry): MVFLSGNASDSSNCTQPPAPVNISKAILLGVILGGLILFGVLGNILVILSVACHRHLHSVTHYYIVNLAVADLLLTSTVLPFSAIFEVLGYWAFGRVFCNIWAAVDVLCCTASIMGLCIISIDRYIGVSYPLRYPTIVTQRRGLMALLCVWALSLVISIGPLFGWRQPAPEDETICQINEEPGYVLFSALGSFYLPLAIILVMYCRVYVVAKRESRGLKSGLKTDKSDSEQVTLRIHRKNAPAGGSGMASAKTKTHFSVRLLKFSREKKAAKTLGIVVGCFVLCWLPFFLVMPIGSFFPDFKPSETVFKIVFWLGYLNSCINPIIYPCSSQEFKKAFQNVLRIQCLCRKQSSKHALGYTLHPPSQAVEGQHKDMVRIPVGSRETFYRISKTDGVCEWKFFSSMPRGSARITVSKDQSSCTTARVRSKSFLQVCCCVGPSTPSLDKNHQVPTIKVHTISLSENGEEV
Description: PDSP Primary Binding target: ADRA1A - Compounds are tested at 10 uM concentration, plate are incubated at room temperature in the dark for 90 minutes. Reaction are stopped by vacuum filtration onto 0.3% polyethyleneimine soaked filter mats using Filtermate harvester. Scintilation cocktail is then melted onto microwave-dried filters on a hot plate and the radio activity is counted in Microbia counter.

[9] = biological target: T4, Muscarinic acetylcholine receptor M2 (Homo sapiens) (UniProt P08172)
T4 sequence (whole entry): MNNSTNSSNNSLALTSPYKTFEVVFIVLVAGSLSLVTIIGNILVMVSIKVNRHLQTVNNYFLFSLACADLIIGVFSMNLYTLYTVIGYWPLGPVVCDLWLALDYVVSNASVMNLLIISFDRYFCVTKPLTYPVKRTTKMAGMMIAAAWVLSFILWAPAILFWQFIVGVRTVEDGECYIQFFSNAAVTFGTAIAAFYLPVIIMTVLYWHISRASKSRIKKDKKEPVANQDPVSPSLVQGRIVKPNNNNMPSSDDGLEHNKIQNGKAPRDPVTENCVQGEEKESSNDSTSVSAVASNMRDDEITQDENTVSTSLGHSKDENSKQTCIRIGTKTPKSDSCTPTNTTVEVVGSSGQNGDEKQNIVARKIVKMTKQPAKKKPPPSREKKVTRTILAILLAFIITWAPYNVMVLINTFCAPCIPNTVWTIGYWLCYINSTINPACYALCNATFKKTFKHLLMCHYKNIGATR
Description: PDSP Primary Binding target: CHRM2 - Compounds are tested at 10 uM concentration, plate are incubated at room temperature in the dark for 90 minutes. Reaction are stopped by vacuum filtration onto 0.3% polyethyleneimine soaked filter mats using Filtermate harvester. Scintilation cocktail is then melted onto microwave-dried filters on a hot plate and the radio activity is counted in Microbia counter.

[10] = biological target: T5, Alpha-1D adrenergic receptor (Homo sapiens) (UniProt P25100)
T5 sequence (whole entry): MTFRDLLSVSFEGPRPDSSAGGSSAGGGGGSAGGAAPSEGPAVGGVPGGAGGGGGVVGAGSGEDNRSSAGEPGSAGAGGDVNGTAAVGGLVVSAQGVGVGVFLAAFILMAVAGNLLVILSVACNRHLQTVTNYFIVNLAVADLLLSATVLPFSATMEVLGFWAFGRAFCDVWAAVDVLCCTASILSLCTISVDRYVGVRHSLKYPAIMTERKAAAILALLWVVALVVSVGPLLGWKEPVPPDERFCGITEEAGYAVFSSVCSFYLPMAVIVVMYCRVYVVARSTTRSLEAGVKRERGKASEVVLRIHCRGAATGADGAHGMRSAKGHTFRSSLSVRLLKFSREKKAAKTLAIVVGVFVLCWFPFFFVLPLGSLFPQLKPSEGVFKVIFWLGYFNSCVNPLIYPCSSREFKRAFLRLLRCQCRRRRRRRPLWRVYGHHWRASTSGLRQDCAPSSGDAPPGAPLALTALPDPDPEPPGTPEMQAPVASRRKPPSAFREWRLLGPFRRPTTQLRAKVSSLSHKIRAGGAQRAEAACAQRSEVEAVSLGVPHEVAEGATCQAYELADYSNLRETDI
Description: PDSP Primary Binding target: ADRA1D - Compounds are tested at 10 uM concentration, plate are incubated at room temperature in the dark for 90 minutes. Reaction are stopped by vacuum filtration onto 0.3% polyethyleneimine soaked filter mats using Filtermate harvester. Scintilation cocktail is then melted onto microwave-dried filters on a hot plate and the radio activity is counted in Microbia counter.

[11] = biological target: Muscarinic acetylcholine receptor M3 (Homo sapiens) (UniProt P20309)
Description: PDSP Primary Binding target: CHRM3 - Compounds are tested at 10 uM concentration, plate are incubated at room temperature in the dark for 90 minutes. Reaction are stopped by vacuum filtration onto 0.3% polyethyleneimine soaked filter mats using Filtermate harvester. Scintilation cocktail is then melted onto microwave-dried filters on a hot plate and the radio activity is counted in Microbia counter.

[12] = biological target: D(1B) dopamine receptor (Homo sapiens) (UniProt P21918)
Sequence of D(1B) dopamine receptor (Homo sapiens) (P21918 whole entry): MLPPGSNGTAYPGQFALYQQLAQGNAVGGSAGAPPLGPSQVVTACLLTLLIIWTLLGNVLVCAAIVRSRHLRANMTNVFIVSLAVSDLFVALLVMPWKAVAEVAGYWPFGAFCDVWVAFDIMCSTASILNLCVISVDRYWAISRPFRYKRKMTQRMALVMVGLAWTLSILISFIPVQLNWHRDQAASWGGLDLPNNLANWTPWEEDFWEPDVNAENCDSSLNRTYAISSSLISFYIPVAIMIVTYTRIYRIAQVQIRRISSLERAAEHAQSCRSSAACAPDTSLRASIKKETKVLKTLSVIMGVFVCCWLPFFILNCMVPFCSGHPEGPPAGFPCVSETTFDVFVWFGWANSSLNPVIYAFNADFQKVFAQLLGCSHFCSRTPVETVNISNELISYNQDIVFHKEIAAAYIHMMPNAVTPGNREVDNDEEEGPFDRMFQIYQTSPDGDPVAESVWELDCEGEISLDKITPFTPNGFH
Description: PDSP Primary Binding target: DRD5 - Compounds are tested at 10 uM concentration, plate are incubated at room temperature in the dark for 90 minutes. Reaction are stopped by vacuum filtration onto 0.3% polyethyleneimine soaked filter mats using Filtermate harvester. Scintilation cocktail is then melted onto microwave-dried filters on a hot plate and the radio activity is counted in Microbia counter.

Sequence of Kappa-type opioid receptor (Homo sapiens) (P41145 whole entry): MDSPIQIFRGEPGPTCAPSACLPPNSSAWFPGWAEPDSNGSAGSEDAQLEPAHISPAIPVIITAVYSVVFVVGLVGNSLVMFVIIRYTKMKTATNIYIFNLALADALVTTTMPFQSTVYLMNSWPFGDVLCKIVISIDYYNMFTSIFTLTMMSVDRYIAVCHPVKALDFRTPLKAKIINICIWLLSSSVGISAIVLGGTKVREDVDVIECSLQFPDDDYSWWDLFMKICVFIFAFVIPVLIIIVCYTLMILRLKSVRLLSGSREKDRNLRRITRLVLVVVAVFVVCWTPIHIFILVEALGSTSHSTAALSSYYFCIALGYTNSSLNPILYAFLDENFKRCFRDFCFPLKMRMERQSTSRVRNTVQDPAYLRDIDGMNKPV
Sequence of Muscarinic acetylcholine receptor M3 (Homo sapiens) (P20309 whole entry, looked up): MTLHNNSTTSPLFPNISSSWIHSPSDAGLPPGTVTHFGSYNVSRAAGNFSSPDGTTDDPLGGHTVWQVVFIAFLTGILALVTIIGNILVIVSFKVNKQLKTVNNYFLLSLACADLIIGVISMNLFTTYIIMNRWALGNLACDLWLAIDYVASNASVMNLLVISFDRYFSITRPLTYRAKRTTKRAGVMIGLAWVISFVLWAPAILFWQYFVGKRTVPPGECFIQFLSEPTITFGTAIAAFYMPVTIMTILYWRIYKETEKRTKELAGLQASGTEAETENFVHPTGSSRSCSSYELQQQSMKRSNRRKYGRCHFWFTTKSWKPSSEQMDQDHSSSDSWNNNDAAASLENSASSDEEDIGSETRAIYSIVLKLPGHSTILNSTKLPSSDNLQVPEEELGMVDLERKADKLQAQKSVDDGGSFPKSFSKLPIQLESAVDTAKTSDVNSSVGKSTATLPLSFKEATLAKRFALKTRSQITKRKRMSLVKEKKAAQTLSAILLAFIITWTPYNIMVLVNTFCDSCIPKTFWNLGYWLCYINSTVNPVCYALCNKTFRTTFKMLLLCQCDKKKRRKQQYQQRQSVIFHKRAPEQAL
Sequence of Delta-type opioid receptor (Homo sapiens) (P41143 whole entry): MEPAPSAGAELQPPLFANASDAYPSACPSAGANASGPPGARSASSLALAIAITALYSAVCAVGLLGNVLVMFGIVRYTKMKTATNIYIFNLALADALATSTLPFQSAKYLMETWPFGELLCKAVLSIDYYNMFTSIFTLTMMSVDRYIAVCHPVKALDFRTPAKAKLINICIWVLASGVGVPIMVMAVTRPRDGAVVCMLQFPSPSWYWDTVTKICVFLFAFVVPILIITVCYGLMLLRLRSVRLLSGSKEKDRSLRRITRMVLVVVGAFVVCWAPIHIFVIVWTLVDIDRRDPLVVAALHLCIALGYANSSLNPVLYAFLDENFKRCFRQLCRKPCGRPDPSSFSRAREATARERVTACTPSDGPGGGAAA
Sequence of 5-hydroxytryptamine receptor 5A (Homo sapiens) (P47898 whole entry): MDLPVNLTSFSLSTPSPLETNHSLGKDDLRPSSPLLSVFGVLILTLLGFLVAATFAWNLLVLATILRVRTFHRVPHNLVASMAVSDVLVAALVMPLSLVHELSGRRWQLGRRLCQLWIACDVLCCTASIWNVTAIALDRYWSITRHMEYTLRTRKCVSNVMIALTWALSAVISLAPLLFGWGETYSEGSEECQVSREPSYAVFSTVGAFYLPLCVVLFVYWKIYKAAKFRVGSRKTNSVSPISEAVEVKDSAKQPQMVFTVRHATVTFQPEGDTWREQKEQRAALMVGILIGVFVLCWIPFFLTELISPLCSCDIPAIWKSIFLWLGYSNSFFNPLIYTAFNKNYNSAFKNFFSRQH
Sequence of Translocator protein (Homo sapiens) (P30536 whole entry): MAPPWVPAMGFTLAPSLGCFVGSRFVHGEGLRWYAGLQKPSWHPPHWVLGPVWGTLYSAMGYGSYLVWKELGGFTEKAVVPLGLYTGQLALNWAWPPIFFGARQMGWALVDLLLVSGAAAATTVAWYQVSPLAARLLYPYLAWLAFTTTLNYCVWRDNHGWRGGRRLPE
Sequence of Histamine H1 receptor (Homo sapiens) (P35367 whole entry): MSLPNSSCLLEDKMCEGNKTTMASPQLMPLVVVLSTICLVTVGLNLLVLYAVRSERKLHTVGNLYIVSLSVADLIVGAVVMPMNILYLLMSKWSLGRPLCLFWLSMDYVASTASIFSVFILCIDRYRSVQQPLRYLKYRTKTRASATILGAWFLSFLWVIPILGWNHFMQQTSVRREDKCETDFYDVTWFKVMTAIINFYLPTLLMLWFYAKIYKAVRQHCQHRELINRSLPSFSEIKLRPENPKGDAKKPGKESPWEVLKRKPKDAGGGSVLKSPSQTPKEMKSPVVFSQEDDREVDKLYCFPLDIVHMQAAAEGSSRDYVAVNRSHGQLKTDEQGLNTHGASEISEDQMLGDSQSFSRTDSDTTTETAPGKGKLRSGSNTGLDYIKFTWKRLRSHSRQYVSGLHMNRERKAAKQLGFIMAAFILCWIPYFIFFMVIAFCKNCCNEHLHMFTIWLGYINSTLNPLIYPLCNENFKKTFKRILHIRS

Row | SMILES | inhibition [1] | inhibition [2] | inhibition [3] | inhibition [4] | inhibition [5] | inhibition [6] | inhibition [7] | inhibition [8] | inhibition [9] | inhibition [10] | inhibition [11] | inhibition [12]
1 | CCCCN1CCC(COC(=O)c2cc(Cl)c(N)c3c2OCCO3)CC1 | 0.6% | -0.67% | -1.01% | 7.01% | -1.39% | 55.4% | 0.42% | 52.9% | 5.99% | 24.6% | 14.6% | -0.98%
2 | Cc1nc2sccn2c(=O)c1CCN1CCC(=C(c2ccc(F)cc2)c2ccc(F)cc2)CC1 | 17.7% | 94% | 30.5% | 65.8% | 95.9% | 98.3% | 31.2% | 96.8% | 34.1% | 97.8% | 6.1% | 74.1%
3 | COc1cc(-n2cnc3cc(-c4ccc(Cl)cc4)sc3c2=O)ccc1OCCN1CCCC1 | 28.9% | 85.3% | 8.71% | 33.2% | 27.2% | 42.2% | 11.9% | 37.3% | 71.5% | 53.1% | 56.6% | 27.2%
4 | COc1ccc(OC(F)(F)F)cc1CN[C@H]1CCCN[C@H]1c1ccccc1 | – | 24.8% | 56.2% | 21.1% | 2.37% | 92.9% | 17.5% | 31.1% | 12.9% | 15.1% | -8.99% | -8.91%
5 | Cc1nc(-c2ccc(-c3ccc(C(=O)N4CCc5cc6c(cc54)C4(CCN(C)CC4)CO6)cc3)c(C)c2)no1 | -1.39% | 14% | 9.17% | – | 16.4% | 33.8% | 24.4% | 27.9% | 44.5% | 66.3% | 73% | 57.1%
6 | C[C@@H](NCCCc1cccc(C(F)(F)F)c1)c1cccc2ccccc12 | – | 81.9% | 87.7% | 79.3% | 53.8% | 12.7% | 13.5% | 38.5% | 42% | 28.2% | 25.8% | -9.65%
7 | Oc1ccc2c3c1O[C@H]1c4[nH]c5c(c4C[C@@]4(O)[C@@H](C2)N(CC2CC2)CC[C@]314)C[C@@]1(O)[C@H]2Cc3ccc(O)c4c3[C@@]1(CCN2CC1CC1)[C@H]5O4 | 93.5% | 8.31% | – | 105% | -1.68% | 9.21% | 21.5% | 30.1% | 0.51% | 4.88% | 3.43% | -8.61%
8 | C[C@@H](N)Cc1c[nH]cn1 | – | -3.48% | -9.3% | -2.45% | – | 8.33% | – | 8.76% | -5.01% | – | -7.33% | 24.8%
9 | CN1C2CCC1CC(OC(c1ccc(F)cc1)c1ccc(F)cc1)C2 (stereo unspecified) | – | 83.1% | 21.6% | 65.7% | 96.5% | – | 47.8% | 98.7% | 111% | 91.5% | 95.9% | 66.6%
10 | CC[C@@H]1CN2C(=O)N(C)c3nc(-c4ccccc4)[nH]c3C2=N1 | -7.99% | 14.4% | 12% | 6.33% | -5.35% | 27.4% | -3.48% | 4.28% | -8.11% | – | -6.97% | 9.96%
11 | c1ccc(N2CCN(Cc3nc4ccccc4[nH]3)CC2)nc1 | -5.06% | 11.8% | 35.1% | 54.7% | – | 15.6% | 6.18% | 6.23% | -8.11% | – | -4.76% | -1.78%
12 | Cc1cc(C(=O)N2Cc3cnn(C)c3Nc3ccccc32)ccc1CNC(=O)N1CCC[C@H]1C(=S)N1CCCN(C)CC1 | – | 35% | -3.18% | 61.7% | -2.71% | 24.4% | -9.04% | -5.86% | 68.4% | – | 65.2% | 11%
13 | CCCCC#Cc1nc(NC)c2ncn([C@@H]3O[C@H](CO)[C@@H](O)[C@H]3O)c2n1 | 9.12% | -6.71% | 3.96% | 8.14% | 8.1% | 20.6% | 3.46% | -3.3% | 22.8% | -1.99% | 13.6% | –
14 | COc1cccc([C@H](O)C2CCN(CCc3ccc(F)cc3)CC2)c1OC | 4.4% | 16.8% | 3.32% | – | 57.3% | 92.9% | -6.18% | 31.6% | 1.5% | 34.5% | -8.67% | 4.09%
15 | CCCCCCCCCCCCCCCCOC[C@H](COP(=O)([O-])OCC[N+](C)(C)C)OC(C)=O | 43.7% | 17.5% | 2.85% | 11.9% | 71.6% | – | – | 34.5% | -4.25% | 50.7% | 19.2% | 13.6%
